From article PMC8831244 (Nature methods, 2022)

Experiments:
OxLight1 [1] = target: T1, OxLight1 (Homo sapiens, UniProt O43614, DEL254-292/I293E/K294R/L160H/M161K/Q254E); assay type: cell-based; conditions: 10 μM, HEK293T
T1 sequence (O43614 with tags, fused parts or gaps L160H/M161K/DEL254-292/I293E/K294R): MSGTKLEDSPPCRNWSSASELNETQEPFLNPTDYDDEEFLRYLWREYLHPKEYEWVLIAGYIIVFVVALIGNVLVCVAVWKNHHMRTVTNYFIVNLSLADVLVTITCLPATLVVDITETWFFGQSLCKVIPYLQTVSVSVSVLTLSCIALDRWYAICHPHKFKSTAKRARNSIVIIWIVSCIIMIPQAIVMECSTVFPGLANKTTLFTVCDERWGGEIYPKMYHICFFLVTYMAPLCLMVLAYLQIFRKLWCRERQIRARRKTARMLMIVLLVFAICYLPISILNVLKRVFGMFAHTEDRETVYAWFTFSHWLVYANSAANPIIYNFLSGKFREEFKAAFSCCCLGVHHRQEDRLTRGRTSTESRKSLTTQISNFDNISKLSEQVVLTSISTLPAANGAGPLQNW

OX2R [2] = test: Intracellular calcium signaling, OX2R-expressing HEK293T cells; assay type: cell-based, human; conditions: orexin-A and orexin-B
OxLight1 [3] = target: T1, OxLight1; assay type: cell-based; conditions: OxLight1, 10 μM orexin, HEK cells, mean ± SEM
OxLight1 [4] = target: T1, OxLight1; assay type: cell-based; conditions: 10 μM, HEK293T, 37°C, mono-exponential fit, n = 8 dishes, mean ± SEM
OxLight1 [5] = test: Photometry during anesthesia; assay type: in vivo, mouse; conditions: isoflurane 2% 10 min or medetomidine 0.5 mg/kg i.p., mice
[6] = test system: OxLight1 in basal forebrain or LH; test: Photometry with polysomnographic recordings across sleep-wake states; assay type: in vivo, mouse; conditions: 50 mg/kg, per os, mice
OxLight1 [7] = target: T1, OxLight1; assay type: cell-based; conditions: Almorexant 10 μM after OXB 5 μM
OX2R [8] = test: beta-Arrestin-2 recruitment to OX2R, TIRF microscopy; assay type: cell-based, human; conditions: agonist stimulation 15 min
OX2R [9] = test: Mini-G protein recruitment to OX2R, TIRF microscopy; assay type: cell-based, human; conditions: OXB 50 nM

Molecule: Dynorphin
- OxLight1 response to neuropeptide (OxLight1 [1]): lack of response

Molecule: orexin-B: endogenous orexin neuropeptide
- intracellular Ca2+ response (OX2R [2]): robust intracellular Ca^2+ responses
- ΔF/F0, maximal response (OxLight1 [3]): 859 ± 27%
- activation time constant τ (OxLight1 [4]): 618 ± 98 ms

Molecule: Cc1cccc(C(C)c2cnc[nH]2)c1C (stereo not shown) [medetomidine]
- effect on OxLight1 signal (OxLight1 [5]): no change

Molecule: Cc1ccc(-n2nccn2)c(C(=O)N2CCN(c3nc4cc(Cl)ccc4o3)CC[C@H]2C)c1 [Suvorexant]
- effect on OxLight1 response across sleep-wake states [6]: significantly reduced the response of OxLight1

Molecule: CNC(=O)[C@@H](c1ccccc1)N1CCc2cc(OC)c(OC)cc2[C@@H]1CCc1ccc(C(F)(F)F)cc1 [Almorexant]
- reversal of fluorescence response (OxLight1 [7]): fully reversed

Molecule: FC(F)OC(Cl)C(F)(F)F (stereo not shown) [isoflurane]
- effect on OxLight1 signal (OxLight1 [5]): significant decrease in OxLight1 signal

B1: OX2R: wild-type human orexin type-2 receptor (protein, UniProt O43614 1-444, looked up)
Orexin receptor type 2: MSGTKLEDSPPCRNWSSASELNETQEPFLNPTDYDDEEFLRYLWREYLHPKEYEWVLIAGYIIVFVVALIGNVLVCVAVWKNHHMRTVTNYFIVNLSLADVLVTITCLPATLVVDITETWFFGQSLCKVIPYLQTVSVSVSVLTLSCIALDRWYAICHPLMFKSTAKRARNSIVIIWIVSCIIMIPQAIVMECSTVFPGLANKTTLFTVCDERWGGEIYPKMYHICFFLVTYMAPLCLMVLAYLQIFRKLWCRQIPGTSSVVQRKWKPLQPVSQPRGPGQPTKSRMSAVAAEIKQIRARRKTARMLMIVLLVFAICYLPISILNVLKRVFGMFAHTEDRETVYAWFTFSHWLVYANSAANPIIYNFLSGKFREEFKAAFSCCCLGVHHRQEDRLTRGRTSTESRKSLTTQISNFDNISKLSEQVVLTSISTLPAANGAGPLQNW
- β-arrestin-2 engagement (OX2R [8]): robust β-arrestin-2 engagement
- mini-G recruitment (OX2R [9]): selective and strong recruitment of mini-Gq
